Data set [1] is described as follows: Cytotoxicity against mouse NIH/3T3 cells assessed as reduction in cell viability incubated for 4 days by SRB assay. In kind it is toxicity, cell-based, NIH3T3.
Data set [2] is described as follows: Inhibition of EIF1A in human Jurkat cells assessed as reduction in T-cell receptor-mediated IL-2 expression. In kind it is cell-based.
The test system of data set [3] is A549. Briefly: Antiproliferative activity against human A549 cells assessed as cell growth inhibition incubated for 24 by 14C-thymidine incorporation assay. In kind it is functional, cell-based. In general terms: Incorporation of labelled thymidine or its analogues reports DNA synthesis.
The subject of data set [4] is HCT-116. Briefly: Antiproliferative activity against human HCT-116 cells assessed as cell growth inhibition incubated for 24 by 14C-thymidine incorporation assay. In kind it is functional, cell-based.
The subject of data set [5] is HCT-116. Nature of the data set: Antiproliferative activity against human HCT-116 cells assessed as cell growth inhibition. The format is functional, cell-based.
In data set [6] the test system is 3T3-L1. Nature of the data set: Cytotoxicity against mouse 3T3-L1 adipocyte assessed as inhibition of fat accumulation incubated for 30 mins. In kind it is toxicity, cell-based. The following applies: 3T3-L1, 0.5 h.
Data set [7] in a line: Inhibition of EIF1A (unknown origin). More on the design: species or system Homo sapiens.
Data set [8] has as its system L1210. Briefly: Anticancer activity against mouse L1210 cells allografted in mouse assessed as increase in survival rate. The format is functional.
The nature of data set [9]: (§1) In vivo activation of dystrophin in mouse H2K mdx cells assessed as increase in production of dystrophin protein. The format is functional.
Data set [10] relates to A549. Nature of the data set: Antiproliferative activity against human A549 cells assessed as cell growth inhibition incubated for 3 days. In kind it is functional, cell-based. The following applies: A549, 72 h.
The test system of data set [11] is SK-MEL-28. Nature of the data set: Antiproliferative activity against human SK-MEL-28 cells assessed as cell growth inhibition incubated for 3 days. In kind it is functional, cell-based. Particulars: SK-MEL-28, 72 h; call rule not given here.
The subject of data set [12] is P388. Nature of the data set: Inhibition of protein synthesis in mouse P388 cells measured after 72 hrs. The following applies: P388, 72 h. In kind it is functional, cell-based.
For data set [13], the system named is P388. Nature of the data set: Antiproliferative activity against mouse P388 cells assessed as cell growth inhibition incubated for 3 days. The format is functional, cell-based. Particulars: P388, 72 h.
Data set [14] has as its system P388. Nature of the data set: Inhibition of DNA synthesis in mouse P388 cells measured after 72 hrs. Particulars: P388, 72 h. The format is functional, cell-based.
For data set [15], the system named is P388. Nature of the data set: Inhibition of RNA synthesis in mouse P388 cells measured after 72 hrs. The format is functional, cell-based.
The subject of data set [16] is HT-29. Briefly: Antiproliferative activity against human HT-29 cells assessed as cell growth inhibition incubated for 3 days. The format is functional, cell-based. Particulars: HT-29, 72 h.
In data set [17] the test system is HeLa. Briefly: Antiproliferative activity against human HeLa cells assessed as cell growth inhibition. The format is functional, cell-based.
Data set [18] can be described thus: Antiproliferative activity against mouse JB6 Cl 41-5a cells assessed as cell growth inhibition. In kind it is functional, cell-based.
Data set [19] has as its system SARS-CoV-2. Nature of the data set: Antiviral activity against SARS-CoV-2 infected in African green monkey Vero E6 cells assessed as inhibition of viral replication. The following applies: Severe acute respiratory syndrome coronavirus 2, Vero C1008. The format is functional, organism-based.
For data set [20], the system named is SARS-CoV-2. Briefly: Antiviral activity against SARS CoV-2 clinical isolate 2019-nCoV infected with African green monkey Vero E6 cells by qRT-PCR analysis. The following applies: Severe acute respiratory syndrome coronavirus 2, 2019-nCoV, Vero C1008. In kind it is functional, organism-based. On the technique in general: In qPCR the cycle at which signal appears reflects the starting amount.

Data set [21] concerns HeLa. Nature of the data set: Antiproliferative activity against human HeLa cells assessed as cell growth inhibition by [35S] methionine incorporation assay. In kind it is functional, cell-based.
The test system of data set [22] is OCI-AML-3. Nature of the data set: Antiproliferative activity against human OCI-AML-3 cells assessed as cell growth inhibition incubated for 48 hrs by MTS assay. The format is functional, cell-based. The following applies: OCI-AML-3, 48 h. On the technique in general: Tetrazolium assays rely on reduction of a dye to a coloured formazan, in cell work by metabolically active cells.

Data set [23] has as its system U-937. Nature of the data set: Antiproliferative activity against human U-937 cells assessed as cell growth inhibition incubated for 48 hrs by MTS assay. In kind it is functional, cell-based. The following applies: U-937, 48 h.
Data set [24] has as its system HL-60. Briefly: Antiproliferative activity against human HL-60 cells assessed as cell growth inhibition incubated for 48 hrs by MTS assay. The format is functional, cell-based. Particulars: HL-60, 48 h.
The subject of data set [25] is OCI-AML2. Nature of the data set: Antiproliferative activity against human OCI-AML2 cells assessed as cell growth inhibition incubated for 48 hrs by MTS assay. The following applies: OCI-AML2, 48 h. The format is functional, cell-based.
For data set [26], the system named is NB-4. Nature of the data set: Antiproliferative activity against human NB-4 cells assessed as cell growth inhibition incubated for 48 hrs by MTS assay. The format is functional, cell-based. Particulars: NB-4, 48 h.
The test system of data set [27] is Cystic fibrosis transmembrane conductance regulator (Homo sapiens), P13569 [UNDEFINED MUTATION]. Briefly: In vivo activation of human […]-G542X mutant xenografted in mouse model assessed as induction of […] channel expression at 34 mg/kg administered daily. In kind it is functional, organism-based.
In data set [28] the test system is H2K mdx. The description is as §1. In kind it is functional.

The IC50 is the concentration that gives 50% inhibition. What is called EC50 is the concentration at which the effect is half-maximal.

Numbered stars: 1 amine (or outer) side, 2 acyl side, 3 side chain; on linkers, the order of the positions; unused ones are H or OH. Bridge positions count the residues as written; N and C are the ends. Square brackets hold non-standard residues; d marks the D form. Peptide text beside a SMILES is read from it. X1 = CC[C@H](C)[C@@H](N[*:1])[C@@H](O)CC(=O)O[C@H](C(=O)[C@H](C)C(=O)[*:2])C(C)C; NMeY = CN[C@@H](Cc1ccc(O)cc1)C(=O)O; dNMeL = CN[C@H](CC(C)C)C(=O)O

Sequence of Cystic fibrosis transmembrane conductance regulator (Homo sapiens), P13569 [UNDEFINED MUTATION] (P13569 whole entry, looked up): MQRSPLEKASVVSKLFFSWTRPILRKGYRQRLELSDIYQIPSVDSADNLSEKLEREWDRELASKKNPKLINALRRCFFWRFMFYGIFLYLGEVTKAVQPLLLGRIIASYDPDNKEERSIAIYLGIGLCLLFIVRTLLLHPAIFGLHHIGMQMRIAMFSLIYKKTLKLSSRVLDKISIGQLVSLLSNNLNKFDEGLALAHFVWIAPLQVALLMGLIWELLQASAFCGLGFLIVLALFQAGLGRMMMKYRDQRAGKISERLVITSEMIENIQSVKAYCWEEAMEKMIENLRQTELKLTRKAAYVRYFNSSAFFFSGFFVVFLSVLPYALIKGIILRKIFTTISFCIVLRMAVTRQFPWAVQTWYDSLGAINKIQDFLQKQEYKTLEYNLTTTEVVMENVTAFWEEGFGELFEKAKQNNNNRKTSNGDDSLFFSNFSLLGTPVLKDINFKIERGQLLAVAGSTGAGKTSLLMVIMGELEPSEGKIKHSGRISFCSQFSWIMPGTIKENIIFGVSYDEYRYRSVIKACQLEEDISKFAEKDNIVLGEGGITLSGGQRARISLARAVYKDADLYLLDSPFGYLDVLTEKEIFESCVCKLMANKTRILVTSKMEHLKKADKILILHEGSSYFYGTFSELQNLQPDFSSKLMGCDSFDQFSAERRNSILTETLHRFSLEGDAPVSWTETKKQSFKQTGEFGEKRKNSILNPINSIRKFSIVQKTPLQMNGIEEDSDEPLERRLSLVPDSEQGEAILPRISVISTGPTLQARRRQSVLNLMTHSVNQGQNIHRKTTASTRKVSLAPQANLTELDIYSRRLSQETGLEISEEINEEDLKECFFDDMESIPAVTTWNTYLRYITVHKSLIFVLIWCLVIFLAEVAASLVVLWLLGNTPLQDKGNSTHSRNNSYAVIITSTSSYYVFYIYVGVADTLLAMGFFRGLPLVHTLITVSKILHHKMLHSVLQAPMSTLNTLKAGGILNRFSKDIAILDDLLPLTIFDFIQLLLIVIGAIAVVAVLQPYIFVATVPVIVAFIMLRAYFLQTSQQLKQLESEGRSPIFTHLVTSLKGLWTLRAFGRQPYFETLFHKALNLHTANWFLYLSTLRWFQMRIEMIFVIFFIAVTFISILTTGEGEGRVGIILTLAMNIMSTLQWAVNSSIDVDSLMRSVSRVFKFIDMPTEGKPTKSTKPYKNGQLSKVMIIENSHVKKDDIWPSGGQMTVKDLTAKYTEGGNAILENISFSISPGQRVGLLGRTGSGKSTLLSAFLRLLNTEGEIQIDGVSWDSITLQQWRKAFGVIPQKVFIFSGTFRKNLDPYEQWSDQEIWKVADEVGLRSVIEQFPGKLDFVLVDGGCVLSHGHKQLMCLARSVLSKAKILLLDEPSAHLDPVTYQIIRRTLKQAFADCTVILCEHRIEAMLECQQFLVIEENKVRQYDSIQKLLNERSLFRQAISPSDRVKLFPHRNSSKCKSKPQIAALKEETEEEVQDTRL

On to `CONC(=O)[C@H]1[C@@H](O)[C@@]2(O)c3c(OC)cc(OC)cc3O[C@@]2(c2ccc(OC)cc2)[C@@H]1c1ccccc1`, for which the IC50 at 4 days in [1] came to 9 nM.
As to `C/C1=C/C=C\C(=O)O[C@H](/C=C(C)/C=C/C=C/CN(C)C)Cc2csc(n2)CCCCC(=O)O[C@H](C)C1`, in [2], the concentration for half-maximal inhibition (IC50) turned out to be 0.8 nM.
Take `COc1ccc([C@@]23Oc4cc(OC)cc(OC)c4[C@@]24NC(C)=N[C@@]4(O)[C@H](C(=O)N(C)OC)[C@H]3c2ccccc2)cc1`: in data set [1], the IC50 at 4 days is 2 nM.
As to `COc1cc(C[C@H]2NC(=O)[C@H](C(C)C)N(C)C(=O)/C=C\C[C@@H](OC)/C(C)=C/C=C/[C@@H](C)[C@@H](c3ccccc3)OC(=O)[C@H](C(C)C)NC2=O)ccc1O`, the IC50 came to 20 nM in data set [3] and 49 nM in data set [4].
`CC[C@H](C)[C@H]1NC(=O)[C@@H]([C@H](O)C(C)C)NC(=O)[C@@H](C)N(C)C(=O)[C@H](C)N(C)C(=O)[C@H](CC(C)C)NC(=O)[C@H](CC(C)C)N(C)C(=O)[C@H](C)N(C)C1=O`: the IC50 in data set [5] was 71 nM. The EC50 in data set [6] was found to be 20 nM.
Turning to `CC[C@H](C)[C@H]1NC(=O)[C@@H](NC(=O)[C@@H](CC(C)C)N(C)C(=O)[C@@H]2CCCN2C(C)=O)[C@@H](C)OC(=O)[C@H](Cc2ccc(OC)cc2)N(C)C(=O)[C@@H]2CCCN2C(=O)[C@H](CC(C)C)NC(=O)[C@@H](C)C(=O)[C@H](C(C)C)OC(=O)C[C@@H]1O` (Ac-P[dNMeL]T[X1]LP[NMeY](Me); ester 3-C), the IC50 in data set [7] is 100 nM.
As to `CN1C(=O)N[C@H]2[C@@H]3NC(=O)c4ccc(Br)n4[C@@H]3C[C@]21O` [AGELASTATIN A], the Survival in data set [8] is 63%.
On to `O=C(O)c1cccc(-c2noc(-c3ccccc3F)n2)c1` [ATALUREN], for which the Activity in data set [9] amounted to 20%.
Regarding `CC[C@H](C)[C@H]1NC(=O)[C@@H](NC(=O)[C@@H](CC(C)C)NC)[C@@H](C)OC(=O)[C@H](Cc2ccc(OC)cc2)N(C)C(=O)[C@@H]2CCCN2C(=O)[C@H](CC(C)C)NC(=O)[C@@H](C)C(=O)[C@H](C(C)C)OC(=O)C[C@@H]1O` [DIDEMNIN A] (H-[dNMeL]T[X1]LP[NMeY](Me); ester 2-C), the half-maximal inhibitory concentration (IC50) in data set [7] is 400 nM; in [10], 12 nM; in data set [11], 20 nM; in data set [12], 400 nM; in data set [13] it was 10 nM; in data set [14], 1000 nM. The 50% inhibitory concentration (IC50) entry in data set [15] (p388) was “Not Active”; in data set [16], 20 nM.
With `C=C1C[C@](OC)([C@H](O)C(=O)N[C@H]2OCO[C@H]3[C@@H]2O[C@H](C[C@H](O)CO)C(C)(C)[C@@H]3OC)O[C@H](C)[C@@H]1C` [MYCALAMIDE A], the IC50 in [17] worked out at 5 nM; in [18], 1 nM.
Turning to `COC(=O)C[C@](O)(CCCC(C)(C)O)C(=O)O[C@@H]1C(OC)=C[C@]23CCCN2CCc2cc4c(cc2[C@H]13)OCO4` [OMACETAXINE MEPESUCCINATE], the 50% effective concentration (EC50) in data set [19] came out at 60 nM.
As for `CC[C@H](C)[C@H]1NC(=O)[C@@H](NC(=O)[C@@H](CC(C)C)N(C)C(=O)[C@@H]2CCCN2C(=O)C(C)=O)[C@@H](C)OC(=O)[C@H](Cc2ccc(OC)cc2)N(C)C(=O)[C@@H]2CCCN2C(=O)[C@H](CC(C)C)NC(=O)[C@@H](C)C(=O)[C@H](C(C)C)OC(=O)C[C@@H]1O` [PLITIDEPSIN], the IC50 in [7] was 500 nM; in [10] it was 0.2 nM; in [11], 0.5 nM; in data set [12], 500 nM; in [13], 0.2 nM; in data set [14], 100 nM. Moreover, the IC50 was greater than 1000 nM in [15] (Mus musculus, P388, 72 h, read-out: IC50) and 0.5 nM in data set [16].
The compound `NC(=O)c1ncn([C@@H]2O[C@H](CO)[C@@H](O)[C@H]2O)n1` [RIBAVIRIN] had an EC50 in data set [20] of 110000 nM.
`COc1ccc([C@@]23Oc4cc(OC)cc(OC)c4[C@]2(O)[C@H](O)[C@H](C(=O)N(C)C)[C@H]3c2ccccc2)cc1` [ROCAGLAMIDE]: the IC50 in data set [21] worked out at 100 nM.
On to `COC(=O)[C@H]1[C@@H](O)[C@@]2(O)c3c(OC)cc(O[C@@H]4O[C@@H]([C@H](O)CO)CO[C@H]4OC)cc3O[C@@]2(c2ccc(OC)cc2)[C@@H]1c1ccccc1` [SILVESTROL], for which the IC50 was determined as 4 nM in data set [22]; 4 nM in data set [23]; 4 nM in [24]; 20 nM in data set [21]; 4 nM in data set [25]; 4 nM in [26].
For the compound GENTAMICIN, the Activity in data set [27] and in data set [28] was 10% in each case.

For the origin of these results see ChEMBL document CHEMBL5230139, “Inhibitors of Eukaryotic Translational Machinery as Therapeutic Agents” (J Med Chem, 2021).
